Inconclusive results are not listed.
System: MX-1 breast xenograft, intrarenal, nude mice, tumor weight
Test: NCI In Vivo Anticancer Drug Screen. Data for tumor model Human Mammary Carcinoma MX-1 Xenograft (intrarenal inoculation) in NU/NU BALB/C (nude) mice
Conditions: endpoint: mean tumor weight change, higher = larger tumour
How it was run: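 Efficacy in vivo: tumor measurement or survival of treated animals divided by that of vehicle-dosed controls.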

[1] = dose: 50.0 mg/kg/injection, schedule: Q04DX003 (ip), vehicle: saline
[2] = dose: 100.0 mg/kg/injection, schedule: Q04DX003 (ip), vehicle: saline
[3] = dose: 150.0 mg/kg/injection, schedule: Q04DX003 (ip), vehicle: saline with Tween-80
[4] = dose: 200.0 mg/kg/injection, schedule: Q04DX003 (ip), vehicle: saline with Tween-80
[5] = dose: 50.0 mg/kg/injection, schedule: Q04DX003 (ip), vehicle: Klucel (hydroxypropylcellulose) (HPC)
[6] = dose: 100.0 mg/kg/injection, schedule: Q04DX003 (ip), vehicle: Klucel (hydroxypropylcellulose) (HPC)
[7] = dose: 200.0 mg/kg/injection, schedule: Q04DX003 (ip), vehicle: Klucel (hydroxypropylcellulose) (HPC)
[8] = dose: 100.0 mg/kg/injection, schedule: Q04DX003 (ip), vehicle: suspension in saline
[9] = dose: 200.0 mg/kg/injection, schedule: Q04DX003 (ip), vehicle: suspension in saline

`Cc1ccc(C(=O)Nc2ccc(S(=O)(=O)O)c3cc(S(=O)(=O)O)cc(S(=O)(=O)O)c23)cc1NC(=O)c1cccc(NC(=O)Nc2cccc(C(=O)Nc3cc(C(=O)Nc4ccc(S(=O)(=O)O)c5cc(S(=O)(=O)O)cc(S(=O)(=O)O)c45)ccc3C)c2)c1` was tested, and the T/C [1] was 77 % of control, the T/C [2] was 56 % of control and the T/C (dose: 200.0 mg/kg/injection, schedule: Q04DX003 (ip), vehicle: saline) was 51 % of control.
`Nc1ncnc2c1c1c(=O)[nH]c(=O)[nH]c1n2C1OC(CO)C(O)C1O` (stereo not given) was tested, and the T/C (dose: 112.5 mg/kg/injection, schedule: Q04DX003 (sc), vehicle: distilled water + Tween-80) was 62 % of control, the T/C (dose: 225.0 mg/kg/injection, schedule: Q04DX003 (sc), vehicle: distilled water + Tween-80) was 63 % of control and the T/C (dose: 450.0 mg/kg/injection, schedule: Q04DX003 (sc), vehicle: distilled water + Tween-80) was 31 % of control. For the same compound, the T/C (dose: 900.0 mg/kg/injection, schedule: Q04DX003 (sc), vehicle: distilled water + Tween-80) was 25 % of control.
With `O=C(NNC(=O)c1cccc(C(=O)NNC(=O)c2ccc(Cl)c(Cl)c2)n1)c1ccc(Cl)c(Cl)c1` the T/C (dose: 50.0 mg/kg/injection, schedule: Q04DX003 (ip), vehicle: saline with Tween-80) was 106 % of control, the T/C (dose: 100.0 mg/kg/injection, schedule: Q04DX003 (ip), vehicle: saline with Tween-80) was 78 % of control and the T/C [3] was 73 % of control. For the same compound, the T/C [4] was 98 % of control, the T/C (dose: 300.0 mg/kg/injection, schedule: Q04DX003 (ip), vehicle: saline with Tween-80) was 64 % of control and the T/C (dose: 400.0 mg/kg/injection, schedule: Q04DX003 (ip), vehicle: saline with Tween-80) was 102 % of control. For the same compound, the T/C (dose: 600.0 mg/kg/injection, schedule: Q04DX003 (ip), vehicle: saline with Tween-80) was 65 % of control.
With `CCCCCCn1c(SC)nc(COC(=O)NC)c1COC(=O)NC` the T/C (dose: 33.7 mg/kg/injection, schedule: Q04DX003 (ip), vehicle: saline) was 6 % of control, the T/C (dose: 67.5 mg/kg/injection, schedule: Q04DX003 (ip), vehicle: saline) was -37 % of control and the T/C (dose: 135.0 mg/kg/injection, schedule: Q04DX003 (ip), vehicle: saline) was -86 % of control. The T/C (dose: 270.0 mg/kg/injection, schedule: Q04DX003 (ip), vehicle: saline) was -100 % of control.
With `OC(CBr)C(O)C(O)C(O)CBr` (stereo not given) the T/C (dose: 15.0 mg/kg/injection, schedule: Q01DX010 (ip), vehicle: Klucel (hydroxypropylcellulose) (HPC)) was 29 % of control, the T/C (dose: 30.0 mg/kg/injection, schedule: Q01DX010 (ip), vehicle: Klucel (hydroxypropylcellulose) (HPC)) was 13 % of control and the T/C [5] was 93 % of control. The T/C (dose: 50.0 mg/kg/injection, schedule: Q04DX003 (sc), vehicle: Klucel (hydroxypropylcellulose) (HPC)) was 35 % of control, the T/C (dose: 60.0 mg/kg/injection, schedule: Q01DX010 (ip), vehicle: Klucel (hydroxypropylcellulose) (HPC)) was -22 % of control and the T/C [6] was 61 % of control. For the same compound, the T/C (dose: 100.0 mg/kg/injection, schedule: Q04DX003 (sc), vehicle: Klucel (hydroxypropylcellulose) (HPC)) was 33 % of control and the T/C [7] was -44 % of control.
`COc1ccc2ccccc2c1C1NC(=O)c2ccccc2N1` (stereo not given) was tested, and the T/C (dose: 300.0 mg/kg/injection, schedule: Q04DX003 (sc), vehicle: Klucel (hydroxypropylcellulose) (HPC)) was 79 % of control, the T/C (dose: 600.0 mg/kg/injection, schedule: Q04DX003 (sc), vehicle: Klucel (hydroxypropylcellulose) (HPC)) was 104 % of control and the T/C (dose: 1200.0 mg/kg/injection, schedule: Q04DX003 (sc), vehicle: Klucel (hydroxypropylcellulose) (HPC)) was 90 % of control. For the same compound, the T/C (dose: 2400.0 mg/kg/injection, schedule: Q04DX003 (sc), vehicle: Klucel (hydroxypropylcellulose) (HPC)) was 63 % of control.
In the case of `O=C1C2=C(Nc3cc([N+](=O)[O-])ccc3N2)OC1c1ccccn1` (stereo not given), the T/C [5] is reported as 87 % of control, the T/C [6] is reported as 66 % of control and the T/C [7] is reported as 118 % of control. For the same compound, the T/C (dose: 400.0 mg/kg/injection, schedule: Q04DX003 (ip), vehicle: Klucel (hydroxypropylcellulose) (HPC)) was 63 % of control.
In the case of `c1nnc(NCNc2nncs2)s1`, the T/C (dose: 50.0 mg/kg/injection, schedule: Q04DX003 (ip), vehicle: suspension in saline) is reported as 89 % of control, the T/C [8] is reported as 59 % of control and the T/C [9] is reported as 78 % of control. For the same compound, the T/C (dose: 400.0 mg/kg/injection, schedule: Q04DX003 (ip), vehicle: suspension in saline) was 65 % of control.
`O=S(=O)(O)O.[NH-]C1CCCCC1[NH-].[Pt+2]` (stereo not given) was tested, and the T/C (dose: 0.63 mg/kg/injection, schedule: Q01DX010 (sc), vehicle: dextrose) was 81 % of control, the T/C (dose: 1.25 mg/kg/injection, schedule: Q01DX010 (sc), vehicle: dextrose) was 41 % of control and the T/C (dose: 2.5 mg/kg/injection, schedule: Q01DX010 (sc), vehicle: dextrose) was 6 % of control.
In the case of `COc1ccc2oc3c(ccc[n+]3C)c(=O)c2c1`, the T/C [4] is reported as 116 % of control.
For `CN(C)c1ccc(C(=C2C=CC(=[N+](C)C)C=C2)c2ccc(N(C)C)cc2)cc1` (tested in a mixture with another compound), the T/C (dose: 15.0 mg/kg/injection, schedule: Q04DX003 (sc), vehicle: saline with Tween-80) was 124 % of control, the T/C (dose: 30.0 mg/kg/injection, schedule: Q04DX003 (sc), vehicle: saline with Tween-80) was 84 % of control and the T/C (dose: 60.0 mg/kg/injection, schedule: Q04DX003 (sc), vehicle: saline with Tween-80) was 98 % of control. The T/C (dose: 120.0 mg/kg/injection, schedule: Q04DX003 (sc), vehicle: saline with Tween-80) was 75 % of control and the T/C (dose: 150.0 mg/kg/injection, schedule: Q04DX003 (sc), vehicle: saline with Tween-80) was 73 % of control.
For `CN(Cc1cnc2nc(N)nc(N)c2n1)c1ccc(C(=O)NC(CCC(=O)OC(C)(C)C)C(=O)O)cc1` (stereo not given), the T/C (dose: 25.0 mg/kg/injection, schedule: Q03HX015 (ip), vehicle: sodium bicarbonate) was 62 % of control, the T/C (dose: 50.0 mg/kg/injection, schedule: Q03HX015 (ip), vehicle: sodium bicarbonate) was 110 % of control and the T/C (dose: 100.0 mg/kg/injection, schedule: Q03HX015 (ip), vehicle: sodium bicarbonate) was 54 % of control. The T/C (dose: 200.0 mg/kg/injection, schedule: Q03HX015 (ip), vehicle: sodium bicarbonate) was 116 % of control.
For `O=C1C2CC(Cl)C(SSC3CC4C(=O)N(SC(Cl)(Cl)C(Cl)Cl)C(=O)C4CC3Cl)CC2C(=O)N1SC(Cl)(Cl)C(Cl)Cl` (stereo not given), the T/C (dose: 75.0 mg/kg/injection, schedule: Q04DX003 (ip), vehicle: saline with Tween-80) was 88 % of control and the T/C [3] was 45 % of control.
In the case of `N#CC(C#N)=NNc1ccc2cn[nH]c2c1`, the T/C (dose: 12.5 mg/kg/injection, schedule: Q04DX003 (ip), vehicle: Klucel (hydroxypropylcellulose) (HPC)) is reported as 94 % of control, the T/C [5] is reported as 174 % of control and the T/C [6] is reported as 106 % of control.
For `Cc1ccoc1`, the T/C (dose: 50.0 mg/kg/injection, schedule: Q01DX010 (ip), vehicle: saline with Tween-80) was 102 % of control, the T/C (dose: 100.0 mg/kg/injection, schedule: Q01DX010 (ip), vehicle: saline with Tween-80) was 97 % of control and the T/C (dose: 200.0 mg/kg/injection, schedule: Q01DX010 (ip), vehicle: saline with Tween-80) was 104 % of control.
In the case of `CC(=O)Nc1ccc(Nc2ccc(C(=C3C=CC(=[N+](C)CCC#N)C=C3)c3ccc(N(C)CCC#N)cc3)cc2)cc1`, the T/C (dose: 12.5 mg/kg/injection, schedule: Q04DX003 (ip), vehicle: saline) is reported as 45 % of control, the T/C (dose: 25.0 mg/kg/injection, schedule: Q04DX003 (ip), vehicle: saline) is reported as 80 % of control and the T/C [1] is reported as 63 % of control. For the same compound, the T/C [2] was 97 % of control, the T/C [8] was 84 % of control and the T/C [9] was 45 % of control.
With `O=C(Oc1ccccc1)c1cc(O)c(O)c(O)c1` the T/C (dose: 150.0 mg/kg/injection, schedule: Q04DX003 (ip), vehicle: saline) was 101 % of control and the T/C (dose: 300.0 mg/kg/injection, schedule: Q04DX003 (ip), vehicle: saline) was 55 % of control.
With `Nc1nc([Se]c2nc(N)nc3c2ncn3C2OC(CO)C(O)C2O)c2ncn(C3OC(CO)C(O)C3O)c2n1` (stereo not given) the T/C (dose: 100.0 mg/kg/injection, schedule: Q04DX003 (ip), vehicle: distilled water + Tween-80) was 77 % of control, the T/C (dose: 200.0 mg/kg/injection, schedule: Q04DX003 (ip), vehicle: distilled water + Tween-80) was 78 % of control and the T/C (dose: 400.0 mg/kg/injection, schedule: Q04DX003 (ip), vehicle: distilled water + Tween-80) was 34 % of control.
In the case of `Cc1ccc(NN=O)nc1`, the T/C (dose: 9.35 mg/kg/injection, schedule: Q04DX003 (ip), vehicle: water) is reported as 11 % of control, the T/C (dose: 9.37 mg/kg/injection, schedule: Q04DX003 (ip), vehicle: water) is reported as -9 % of control and the T/C (dose: 18.7 mg/kg/injection, schedule: Q04DX003 (ip), vehicle: water) is reported as 6 % of control. The T/C (dose: 18.75 mg/kg/injection, schedule: Q04DX003 (ip), vehicle: water) was -21 % of control and the T/C (dose: 37.5 mg/kg/injection, schedule: Q04DX003 (ip), vehicle: water) was -69 % of control.

— PubChem BioAssay AID298 (DTP/NCI, 2004)
